Data reported in patent US11597739B2, “Enhancing CD8+ T cells for adoptive T cell therapy by inhibiting PTPN1 (PTP1B) and PTPN2 (TC-PTP)” (The Royal Institution for the Advancement of …, priority 2017, dated 2023).

Test system: OVA expressing EG.7 lymphoma target cells
Experiment: Calcein-release cytotoxicity assay of OT-1 CTLs
Assay type: cell-based, mouse
Details: OT-1 CD8 cells activated with inhibitor at 50 μM; 5 hours; every effector to target ratio; versus untreated, K882 or K885
Description: 9) Cytotoxicity Experiments
3 days before the experiment thaw a new vial of EG.7 cells. After 24 h in culture, the cells are resuspended at 5×10^4 and 100 U/ml of IFN-γ is added. The day of the experiment, the EG.7 cells are harvested, washed once with HBSS. The EG.7 cells are resuspended at 10^6/ml in HBSS and 10 μM Calcein-AM added. The cells are incubated at 37° C. for 1 hr in the dark, washed twice with complete RPMI and counted. They are then resuspend at 3×10^5/ml.
The following wells from a 0.75×10^6/ml suspension of the CD8 (Effector) cells to have different effector to target ratios are prepared in duplicate. Before plating the effector cells, RPMI complete is added, 50 μl to the 5:1 ratio wells and 90 μl to the 1:1 ratio wells. • 75×10^3 (100 μl) 25:1 ratio. • Dilute the suspension 1:2.5 volumes: • 30×10^3 (100 μl) 10:1 ratio. • 15×10^3 (50 μl) 5:1 ratio. • 3×10^3 (10 μl) 1:1 ratio. • Prepare at least 2 wells with 100 μl of RPMI complete.
100 μl of EG.7 (Target) cells is added and spin at 400×g for 2 minutes, RT. […]
For Controls: Background fluorescence (BF): Harvest 100 μl supernatant from control wells. Absolut fluorescence (AF): Add 100 μl of methanol to the control wells harvested for background. […]
Calculate the specific cell lysis as follows: Specific cell lysis=((Sample−BF)/(AF−BF))×100 10) Flow Cytometry 1. […] Record cell quantity transfers per tube; • b. […]

CCOC(=O)c1cc2cc(C(F)(F)P(=O)(O)O)c(Br)cc2s1 [Ex. 1, ((6-BROMO-2-(ETHOXYCARBONYL)BENZO[B]THIOPHEN-5-YL)DIFLUOROMETHYL)PHOSPHONATE]
specific cytotoxicity (lysis of EG.7 cells): lysed EG.7 cells with greater efficiency
